What was measured:
Type in all cases: in vivo
[1] = test system: Mexican bean beetle (Epilachna varivestis, Muls.); assay: Mexican Bean Beetle Leaf Spray Test; set-up: key: A: excellent control; B: partial control; C: no control; settings: 500 parts per million leaf spray; fourth instar larvae; three days
Description: (§1) Suspensions of the test compounds were prepared by dissolving one gram of compound in 50 milliliters of acetone in which had been dissolved 0.1 gram (10 percent of the weight of compound) of an alkylphenoxy polyethoxyethanol surfactant, as an emulsifying or dispersing agent. The resulting solution was mixed into 150 milliliters of water to give roughly 200 milliliters of a suspension containing the compound in finely divided form. The thus-prepared stock suspension contained 0.5 percent by weight of compound. The test concentrations in parts per million by weight employed in the tests described hereinbelow were obtained by appropriate dilutions of the stock suspension with water. The test procedures were as follows:
Fourth instar larvae of the Mexican bean beetle (Epilachna varivestis, Muls.), reared on Tendergreen bean plants at a temperature of 80°±5° F. and 50±5 percent relative humidity, were the test insects.
The test compounds were formulated by diluting the stock suspension with water to give a suspension containing 500 parts of test compound per million parts of final formulation. Potted Tendergreen bean plants of standard height and age were placed on a revolving turntable and sprayed with 100-110 milliliters of test compound formulation by use of a DeVilbiss spray gun set at 10 psig air pressure. This application, which lasted 25 seconds, was sufficient to wet plants to run-off. As a control, 100-110 milliliters of a water-acetone-emulsifier solution containing no test compound were also sprayed on infested plants. When dry, the paired leaves were separated and each was placed in a 9 centimeter Petri dish lined with moistened filter paper. Five randomly selected larvae were introduced into each dish, and the dishes were closed. The closed dishes were labeled and held at a temperature of 80°±5° F. for three days. Although the larvae could easily consume the leaf within 24 to 48 hours, no more food was added. Larvae which were unable to move the length of the body, even upon stimulation, were considered dead.

[2] = test system: two-spotted mite (Tetranychus urticae Koch); assay: Mite Foliage Spray Test; set-up: key: A: excellent control; B: partial control; C: no control; settings: 500 parts per million foliage spray; six days
Description: as §1
Adults and nymphal stages of the two-spotted mite (Tetranychus urticae Koch), reared on Tendergreen bean plants at 80±5 percent relative humidity, were the test organisms. Infested leaves from a stock culture were placed on the primary leaves of two bean plants six to eight inches in height, growing in a two-and-a-half inch clay pot. 150-200 Mites, a sufficient number for testing, transferred from the excised leaves to the fresh plants in a period of twenty four hours. Following the twenty four hour transfer period, the excised leaves were removed from the infested plants. The test compounds were formulated by diluting the stock suspension with water to give a suspension containing 500 parts of test compound per million parts of final formulation. The potted plants (one pot per compound) were placed on a revolving turntable and sprayed with 100-110 milliliters of test compound formulation by use of a DeVilbiss spray gun set at 40 psig. air pressure. This application, which lasted 25 seconds, was sufficient to wet the plants to run-off. As a control, 100-110 milliliters of a water solution containing acetone and emulsifier in the same concentrations as the test compound formulation, but containing no test compound, were also sprayed on infested plants. The sprayed plants were held at 80±5 percent relative humidity for six days, after which a mortality count of motile forms was made. Microscopic examination for motile forms was made on the leaves of the test plants. Any individual which was capable of locomotion upon prodding was considered living.

[3] = test system: southern armyworm (Prodenia eridania, (Cram.)); assay: Southern Armyworm Leaf Spray Test; set-up: key: A: excellent control; B: partial control; C: no control; settings: 500 parts per million leaf spray; three days
Description: as §1
Larvae of the southern armyworm (Prodenia eridania, (Cram.)), reared on Tendergreen bean plants at a temperature of 80°±5° F. and a relative humidity of 50±5 percent, constituted the test insects.
The test compounds were formulated by diluting the stock suspension with water to give a suspension containing 500 parts of test compound per million parts of final formulation. Potted Tendergreen bean plants of standard height and age were placed on a revolving turntable and sprayed with 100-110 milliliters of test compound formulation by use of a DeVilbiss spray gun set at 10 psig air pressure. This application, which lasted 25 seconds, was sufficient to wet plants to run-off. As a control, 100-110 milliliters of a water-acetone-emulsifier solution containing no test compound were also sprayed on infested plants. When dry, the paired leaves were separated and each one was placed in a 9 centimeter Petri dish lined with moistened filter paper. Five randomly selected larvae were introduced into each dish and the dishes were closed. The closed dishes were labeled and held at 80°-85° F. for three days. Although the larvae could easily consume the whole leaf within twenty-four hours, no more food was added. Larvae which were unable to move the length of the body, even upon stimulation by prodding, were considered dead. Percent mortality was recorded for various concentration levels.

[4] = test system: house flies (Musca domestica, L.); assay: Fly Bait Test; set-up: key: A: excellent control; B: partial control; C: no control; settings: 500 parts per million bait in sugar solution; twenty four hours
Description: as §1
Four to six day old adult house flies (Musca domestica, L.) reared according to the specifications of the Chemical Specialties Manufacturing Association (Blue Book, McNair-Dorland Co., N.Y. 1954; pages 243-244, 261) under controlled conditions of 80°±5° F. and 50±5 percent relative humidity, were the test insects. The flies were immobilized by anesthetizing with carbon dioxide and twenty five immobilized individuals, males and females, were transferred to a cage consisting of a standard food strainer about five inches in diameter which was inverted over a wrapping-paper-covered surface. The test compounds were formulated by diluting the stock suspension with a 10 percent (by weight) sugar solution to give a suspension containing 500 parts of test compound per million parts of final formulation, by weight. Ten milliliters of the test formulation were added to a souffle cup containing a one-inch square of an absorbent cotton pad. This bait cup was introduced and centered on the blotting paper under the food strainer prior to admitting the anesthetized flies. The caged flies were allowed to feed on the bait for twenty four hours, at a temperature of 80°±5° F. and the relative humidity of 50±5 percent.

[5] = test system: bean aphid (Aphis fabae Scop.); assay: Bean Aphid Foliage Spray Test; set-up: key: A: excellent control; B: partial control; C: no control; settings: 500 parts per million foliage spray; 24 hour holding period
Description: as §1
Adults and nymphal stages of the bean aphid (Aphis fabae Scop.) reared on potted dwarf nasturtium plants at 65°-70° F. and 50-70 percent relative humidity, constituted the test insects. For testing purposes, the number of aphids per pot was standardized to 100-150 by trimming plants containing excess aphids.
The test compounds were formulated by diluting the stock suspension with water to give a suspension containing 500 parts of test compound per million parts of final formulation.
The potted plants (one pot per compound tested) infested with 100-150 aphids, were placed on a revolving turntable and sprayed with 100-110 milliliters of test compound formulation by use of a DeVilbiss spray gun set at 40 psig. air pressure. This application, which lasted 25 seconds, was sufficient to wet the plants to run-off. As a control, 100-110 milliliters of a water-acetone-emulsifier solution containing no test compound were also sprayed on infested plants. After spraying, the pots were placed on their sides on a sheet of white standard mimeograph paper which had been previously ruled to facilitate counting. Temperature and humidity in the test room during the 24 hour holding period were 65°-70° F. and 50-70 percent, respectively. Aphids which fell onto the paper and were unable to remain standing after being uprighted were considered dead. Aphids remaining on the plants were observed closely for movement and those which were unable to move the length of the body upon stimulation by prodding were considered dead. Percent mortality was recorded for various concentration levels.

[6] = test system: root-knot nematode (Meloidogyne incognita var. acrita); assay: Nematode Test; set-up: key: 1: severe galling; equal to untreated control; 2: moderate galling; 3: light galling; 4: very light galling; 5: no galling; settings: 10 ml of 500 parts per million formulation per jar of soil; cucumber indicator crop, approximately three weeks
Description: as §1
Infective migratory larvae of the root-knot nematode, (Meloidogyne incognita var. acrita) were reared in the greenhouse on roots of Rutgers variety tomato plant. Infected tomato plants were removed from the culture and the roots were chopped very finely. A small amount of inoculum from the roots was added to pint Mason jars containing approximately 180 cc of soil. The jars containing the inoculum and soil were capped and incubated for one week at room temperature. During this period eggs of the nematode hatched and the larvae forms migrated into the soil.
The test compounds were formulated by diluting the stock suspension with water to give a suspension containing 500 parts of test compound per million parts of final formulation. 10 milliliters of the test formulation was added to each of two jars for each dosage treated. As a control 10 milliliters of a water-acetone-emulsifier solution containing no test compound was also added to jars containing nematode larvae. The jars were capped and the contents thoroughly mixed on a kale mill for five minutes. The jars remained capped at room temperature for a period of 48 hours and the contents were then transferred to 3 inch pots. Subsequently, the pots were seeded to cucumber as an indicator crop and placed in the green house where they were cared for in the normal fashion for growing potted cucumber for approximately three weeks. These cucumber plants were then removed from the pots, the soil washed from the roots and the amount of galling visually rated.

In the case of `CN(SSc1ccc(C(C)(C)C)cc1)C(=O)ON=C1SC(C)(C)C(=O)N1C`, the “M. Bean Beetle, pesticidal activity rating” value [1] is reported as “A”, the “Mite, pesticidal activity rating” value [2] is reported as “C” and the “S. Armyworm, pesticidal activity rating” value [3] is reported as “A”. The “H. Fly, pesticidal activity rating” value [4] was “C”, the “Aphid, pesticidal activity rating” value [5] was “C” and the “Nematodes, nematocidal toxicity rating (galling)” value [6] was 1.
